# Assay results from patent publication US20220370416A1, “COMPOUNDS AND METHODS FOR TARGETED DEGRADATION OF KRAS” (Arvinas Operations, Inc., priority 2020, published 2022).
# Legend:
# KRAS^G12C [1] = biological target: T1, KRAS^G12C (Homo sapiens, UniProt P01116, G12C); test: KRAS^G12C degradation by immunoblot in MIA PaCa-2 cells; format: cell-based; parameters: MRTX849-VHL bifunctional compounds engage and degrade endogenous KRAS^G12C in NCI-H2030 cells; endogenous in cells; host or cells: NCI-H2030, NCI-H358, MIA PaCa-2, SW1573, NCI-H23; conditions: for KRAS, two-way ANOVA significance vs DMSO: FIG. 10A
# Description: NCI-H2030 (CRL-5914), MIA PaCa-2 (CRL-1420), NCI-H23 (CRL-5800), NCI-H358 (CRL-5807), and HCT-116 (CCL-247) cells were obtained from ATCC, expanded immediately, and frozen down. Vials were thawed and used within 20 passages. SW1573 cells were a gift from Arvinas and were handled in the same manner. NCI-H2030, NCI-H23, and NCI-H358 were cultured in RPMI (ATCC30-2001) supplemented with 10% FBS (Biological Industries; cat. no. S1480) and 1% Penicillin-Streptomycin (ThermoFisher; cat. no. 15140122). HCT-116 cells were maintained in high glucose DMEM (ThermoFisher; cat. no. 11965084) supplemented as above. MIA PaCa-2 cells were cultured in high glucose DMEM supplemented with 10% FBS, 2.5% horse serum (ThermoFisher; cat. no. 26050-088; lot 2109875), and 1% Penicillin-Streptomycin. SW1573 cells were maintained in DMEM/F12 Nutrient Mix with GlutaMAX supplement (ThermoFisher; cat. no. 10565018) with 10% FBS and 1% Penicillin-Streptomycin added. DPBS (ThermoFisher; cat. no. 14190250) was used to wash cells and 0.25% Trypsin-EDTA (ThermoFisher; cat. no. […]) was used to detach cells for passaging. […] The VHL ligand was generously provided by Arvinas.
# Between 2.5×10^5 and 6.0×10^5 cells were seeded into 6-well plates (Corning; cat. no. 353046). The next day, media was removed and cells were treated with 2.5 μM LC-2 for 1, 2, 4, 8, 12, or 24 hours. […] For 24-hour time course experiments, cells were treated at the indicated times and concurrently lysed in RIPA buffer supplemented as described previously. For longer time course experiments and time courses in which cells were treated with LC-2 or LC-2 Epimer, cells were concurrently treated with either compound, then lysed by scraping in RIPA buffer at the indicated time points.
# Cell lysates were clarified at 21000×g for 15 mins at 4° C. Protein levels were quantified using a 50:1 mixture of bicinchoninic acid solution (Millipore Sigma; cat. no. B9643) and 4% (w/v) copper(II) sulfate solution (Millipore Sigma; cat. no. C2284) incubated at 37° C. for 30 mins. Absorbance values at 560 nm were read on an EnVision 2101 Multilabel Reader (PerkinElmer). Proteins were separated using 26 well Criterion TGX precast 4-15% (cat. no. 5671085) or 8-16% (cat. no. 5671105) gradient midi gels. After separation, proteins were transferred to nitrocellulose or PVDF membranes at 76 V for 2 hours at 4° C. Blots were then blocked in 5% milk in tris-buffered saline with Tween-20 (TBST; 20 mM Tris, 150 mM NaCl, 0.02% Tween-20). After blocking, blots were incubated in primary antibody overnight (12-18 hours) at 4° C. or for 2 hours at room temperature with mild agitation at the manufacturer's indicated dilution in either 5% milk or 5% BSA in TBST. Blots were then washed thrice with TBST for 5 mins at room temperature. After washing, blots were incubated with 1:5,000-1:10,000 of donkey anti-rabbit (GE Life Sciences; NA934) or sheep anti-mouse (GE Life Sciences; NA931) secondary antibody diluted in 5% milk for 1 hour at room temperature with mild agitation. Blots were again washed thrice with TBST for 5 mins. Chemiluminescent signal was generated using Amersham ECL Prime Western Blotting Detection Reagant (GE Life Sciences; cat. no. RPN2232) or SuperSignal West Femto Maximum Sensitivity Substrate (ThermoFisher; cat. no. 34095). Images were obtained using a Bio-Rad ChemiDoc Imager. Fluorescent α-tubulin images were collected with the Bio-Rad ChemiDoc Imager using an Alexa488 filter. The primary antibodies used in this work include: KRAS (LSBio; clone 2C1; cat. no. LS-C175665), p-p42/44 MAPK (phospho T202/Y204) (pErk; Cell Signaling Technologies (CST); cat. no. 4370S or 9106S), p42/44 MAPK (Erk1/2; CST; cat. no. 4695S), alpha-tubulin (CST; 2144S), and alpha-tubulin w/AlexaFluor488 (Millipore; cat. no. 16-232).
# Band intensities were quantified using BioRad's Image Lab Software.
# KRAS^G12C [2] = biological target: T1, KRAS^G12C; test: KRAS^G12C degradation in a panel of 5 KRAS^G12C cancer cell lines (immunoblot); format: cell-based; parameters: MRTX849-VHL bifunctional compounds engage and degrade endogenous KRAS^G12C in NCI-H2030 cells; endogenous in cells; host or cells: NCI-H2030, NCI-H358, MIA PaCa-2, SW1573, NCI-H23; conditions: read-out: DMax values across cell lines
# Description: NCI-H2030 (CRL-5914), MIA PaCa-2 (CRL-1420), NCI-H23 (CRL-5800), NCI-H358 (CRL-5807), and HCT-116 (CCL-247) cells were obtained from ATCC, expanded immediately, and frozen down. Vials were thawed and used within 20 passages. SW1573 cells were a gift from Arvinas and were handled in the same manner. NCI-H2030, NCI-H23, and NCI-H358 were cultured in RPMI (ATCC30-2001) supplemented with 10% FBS (Biological Industries; cat. no. S1480) and 1% Penicillin-Streptomycin (ThermoFisher; cat. no. 15140122). HCT-116 cells were maintained in high glucose DMEM (ThermoFisher; cat. no. 11965084) supplemented as above. […]
# Cell lysates were clarified at 21000×g for 15 mins at 4° C. Protein levels were quantified using a 50:1 mixture of bicinchoninic acid solution (Millipore Sigma; cat. no. B9643) and 4% (w/v) copper(II) sulfate solution (Millipore Sigma; cat. no. C2284) incubated at 37° C. for 30 mins. Absorbance values at 560 nm were read on an EnVision 2101 Multilabel Reader (PerkinElmer). […]
# Band intensities were quantified using BioRad's Image Lab Software. Total KRAS levels were examined by quantifying levels of both conjugated KRAS^G12C and unbound KRAS (wt or mutant) using an analysis box that spanned the two bands. This same sized box was used to quantify unbound KRAS in DMSO treated samples to account for background, except for LC-2 Epimer in FIGS. 6A and 6B. […]
compound,measurement,setting,value
"C=C(F)C(=O)N1CCN(c2nc(OC[C@@H]3CCCN3CCCOCCC(=O)N[C@H](C(=O)N3C[C@H](O)C[C@H]3C(=O)NCc3ccc(-c4scnc4C)cc3)C(C)(C)C)nc3c2CCN(c2cccc4cccc(Cl)c24)C3)C[C@@H]1CC#N [LC-2, (2S,4R)-1-((S)-2-(3-(3-((S)-2-(((7-(8-chloronaphthalen-1-yl)-4-((S)-3-(cyanomethyl)-4-(2-fluoroacryloyl)piperazin-1-yl)-5,6,7,8-tetrahydropyrido[3,4-d]pyrimidin-2-yl)oxy)methyl)pyrrolidin-1-yl)propoxy)propanamido)-3,3-dimethylbutanoyl)-4-hydroxy-N-(4-(4-methylthiazol-5-yl)benzyl)pyrrolidine-2-carboxamide]",DC50,"KRAS^G12C [1]; MIA PaCa2, homozygous KRAS^G12C",320 ± 80 nM
same,Dmax,KRAS^G12C [1]; MIA PaCa-2,> 75%
same,duration of KRAS degradation,"KRAS^G12C [1]; MIA PaCa-2, 2.5 μM",sustained up to 72 hours
same,time to maximal KRAS degradation,"KRAS^G12C [1]; MIA PaCa-2, 2.5 μM, 6, 24, 48, 72 hours",≤ 24 h
same,"KRAS, two-way ANOVA significance vs DMSO","KRAS^G12C [1]; MIA PaCa-2, 2.5 μM, 6 hours",** (** p < 0.01)
same,"KRAS, two-way ANOVA significance vs DMSO","KRAS^G12C [1]; MIA PaCa-2, 2.5 μM, 24 hours",** (** p < 0.01)
same,Dmax,KRAS^G12C [2],75 to 90%
